In ChEMBL document CHEMBL1126418, “Synthesis of chemically stable 9-substituted carbacyclin derivatives and their biological use” (Bioorg Med Chem Lett, 1992):
pIC50: −log10 of the molar value.

How the values were obtained:
Homo sapiens [1] = organism: Homo sapiens; test: The compound was tested for inhibition of blood platelet aggregation induced by ADP; assay type: functional, organism-based
[2] = target: Prostacyclin receptor (Homo sapiens) (UniProt P43119); test: Affinity for Prostaglandin I2 receptor; design: unit not given here
Prostacyclin receptor (Homo sapiens), sequence (P43119 whole entry): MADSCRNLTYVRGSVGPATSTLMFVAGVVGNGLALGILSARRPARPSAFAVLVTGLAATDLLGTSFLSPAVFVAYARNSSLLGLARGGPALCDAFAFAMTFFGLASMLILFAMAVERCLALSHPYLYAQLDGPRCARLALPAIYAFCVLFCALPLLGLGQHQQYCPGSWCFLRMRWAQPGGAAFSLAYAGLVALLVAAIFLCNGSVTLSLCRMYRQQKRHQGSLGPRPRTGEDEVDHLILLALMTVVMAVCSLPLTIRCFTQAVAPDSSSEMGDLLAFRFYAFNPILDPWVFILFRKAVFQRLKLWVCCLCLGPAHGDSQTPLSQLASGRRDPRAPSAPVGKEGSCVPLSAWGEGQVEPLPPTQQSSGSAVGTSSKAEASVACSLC

[3] = Evaluated for the relative potency to that of Iloprost.; assay type: functional
Homo sapiens [4] = organism: Homo sapiens; test: Compound was tested for inhibition of blood platelet aggregation induced by ADP; 0.2-0.5*10e-9; assay type: functional, organism-based
Homo sapiens [5] = organism: Homo sapiens; test: The compound was tested for inhibition of blood platelet aggregation induced by ADP; 0.5-2.5*10e-9; assay type: functional, organism-based
Homo sapiens [6] = organism: Homo sapiens; test: The compound was tested for inhibition of blood platelet aggregation induced by ADP; 100-250*10e-9; assay type: functional, organism-based

SMILES | pIC50 (Homo sapiens [1]) | KF [2] | Relative potency [3] | pIC50 (Homo sapiens [4]) | pIC50 (Homo sapiens [5]) | pIC50 (Homo sapiens [6])
CC#CCC(C)[C@H](O)/C=C/[C@H]1[C@H](O)C[C@]2(C#CCCCI)C/C(=C/CCCC(=O)O)C[C@H]12 (some centres undefined) | 6.70 | > 100 | 0.001 |  |  | 
CC#CCC(C)[C@H](O)/C=C/[C@@H]1[C@H]2C/C(=C/CCCC(=O)O)C[C@H]2C[C@H]1O (stereo in doubt; 1) [ILOPROST] |  | 1 | 1 | 9.70 |  | 
CC#CCC(C)[C@H](O)/C=C/[C@H]1[C@H](O)C[C@]2(C#CCCC(=O)O)C/C(=C\CCCC(=O)O)C[C@H]12 (some centres undefined) | 5.70 | 200 | 0.0002 |  |  | 
CC#CCC(C)[C@H](O)/C=C/[C@H]1[C@H](O)C[C@]2(CCCCCN=[N+]=[N-])C/C(=C\CCCC(=O)O)C[C@H]12 (some centres undefined) | 6.30 | 29 | 0.0005 |  |  | 
CC#CCC(C)[C@H](O)/C=C/[C@H]1[C@H](O)C[C@]2(C#CCCCI)C/C(=C\CCCC(=O)O)C[C@H]12 (some centres undefined) | 8.30 | 5.6 | 1 |  |  | 
CC#CCC(C)[C@H](O)/C=C/[C@H]1[C@H](O)C[C@]2(CCC#CCCCO)C/C(=C\CCCC(=O)O)C[C@H]12 (some centres undefined) | 6.40 | 180 | 0.002 |  |  | 
CC#CCC(C)[C@H](O)/C=C/[C@H]1[C@H](O)C[C@]2(CCCCCO)C/C(=C/CCCC(=O)O)C[C@H]12 (some centres undefined) | 4.96 | n.k. | 4e-05 |  |  | 
CC#CCC(C)[C@H](O)/C=C/[C@@H]1[C@H]2CC(=CCCCC(=O)O)C[C@H]2C[C@H]1O (some centres undefined) [ILOPROST] | 5.36 | 11 | 0.0001 |  |  | 
CC#CCC(C)[C@H](O)/C=C/[C@H]1[C@H](O)C[C@]2(C#CCCCO)C/C(=C\CCCC(=O)O)C[C@H]12 (some centres undefined) | 8.00 | 25 | 0.2 |  |  | 
CC#CCC(C)[C@H](O)/C=C/[C@H]1[C@H](O)C[C@]2(C#CCCCN=[N+]=[N-])C/C(=C/CCCC(=O)O)C[C@H]12 (some centres undefined) | 6.07 | 80 | 0.003 |  |  | 
CC#CCC(C)[C@H](O)/C=C/[C@H]1[C@H](O)C[C@]2(C#CCCCBr)C/C(=C\CCCC(=O)O)C[C@H]12 (some centres undefined) |  | 3 | 1 |  | 9.30 | 
CC#CCC(C)[C@H](O)/C=C/[C@H]1[C@H](O)C[C@]2(C#CCCCBr)C/C(=C/CCCC(=O)O)C[C@H]12 (some centres undefined) |  |  | 0.001 |  |  | 7.00
CC#CCC(C)[C@H](O)/C=C/[C@H]1[C@H](O)C[C@]2(C#CCCCN=[N+]=[N-])C/C(=C\CCCC(=O)O)C[C@H]12 (some centres undefined) | 7.70 | 6 | 0.1 |  |  | 
CC#CCC(C)[C@H](O)/C=C/[C@H]1[C@H](O)C[C@]2(CCCCCO)C/C(=C\CCCC(=O)O)C[C@H]12 (some centres undefined) | 5.15 | 130 | 0.0006 |  |  | 
CC#CCC(C)[C@H](O)/C=C/[C@H]1[C@H](O)C[C@]2(C#CCCCO)C/C(=C/CCCC(=O)O)C[C@H]12 (some centres undefined) | 6.70 | 300 | 0.004 |  |  | 
